# Source: US12616750B2, “Combination therapy utilizing DNA alkylating agents and ATR inhibitors” (Merck Patent GmbH, priority 2018, dated 2026)
# “And” between values parts separate entries of the source, which are not always exact repeats. Equal values may be shown once. Read-outs that look alike come from different tables or passages of the source. Where a SMILES comes first, the peptide text is derived from it. [ ]: non-standard residue; d: D form. The star is where a group is joined. Dolaproine = CO[C@@H]([C@@H]1CCCN1)[C@@H](C)C(=O)O; Dil = CC[C@H](C)[C@H](NC)[C@@H](CC(=O)O)OC; X1 = C[C@@H](N*)[C@@H](O)c1ccccc1; NMeV = CN[C@H](C(=O)O)C(C)C
# Assays:
# HCC-1954 cells [1] = assay: Dose-matrix combination assay (synergy score, Loewe model); assay type: cell-based
# Protocol: (§1) Dose-matrix combination assays were performed as described above, but performed in opague 384-well plates (2k viable cells/well). Compounds were added using Tecan D300e liquid. Protein solutions were supplemented with 0.3% Tween-20 (final) and diluted to 1 μM. All wells were normalized to the maximum amount of DMSO (maximum 0.4%) or Tween-20 added. […] Luminescence values were normalized to luminescence of non-treated cells and dose-response was fitted using Smart Fit. Synergy scores were calculated using LOEWE synergy model.
# (§2) The screening of synergistic drug combinations can be accomplished by performing a dose-matrix assay. Therefore, two drugs are serial diluted and mixed at every dose level, yielding a dose-matrix. The drug combination can be additive if the effects of the combination are identical to the added effects of the single agents. However, the effects of the combination might also be stronger than the activity of the single agents. This scenario is termed synergy, whereas weaker combination effects compared to the single agents are termed antagonism. A dose-matrix assay is depicted schematically in FIG. 2 which illustrates the outcomes of a dose-matrix assay: additivity, antagonism and synergy.
# (§3) The screening was conducted by serial diluting the duocarmycin derivative DUBA (10) and the DDR inhibitors. […] DUBA was combined in a dose-matrix assay with hycanthone. The cell viability was measured after 6 d of treatment using the CellTiter-Glo assay kit. The signals of the cell viability assay were normalized to untreated cells and fitted. […] By subtracting the modeled data from the fitted data, an excess matrix was generated. The excess matrix can be considered as a visualization of the differences between model and actual data which also highlights spots of either high synergy or antagonism. The quantification of the combination effects, however, was performed by calculating synergy scores. […] Besides synergy score, the potency of the drugs in monotherapy was obtained from these experiments. […] The potency was obtained from this dose-response curve.
# (§4) The scattering of S was determined in a sham control experiment to define a cutoff for classifying a combination as truly synergistic or antagonistic. Thus seven different compounds were combined with itself on four different cell lines and the three-σ confidence interval was calculated around the mean of the measurement. […] For the sake of convenience, the cutoff was set to a value of ±1.
# (§5) Synergy scores (S) were obtained from the combination experiments that indicated additivity […] if model and actual response were equal. […] The magnitude of the score determined the extent of the combination effects.
# MDA-MB-468 cells = assay: as above; assay type: cell-based; conditions: combination with DUBA; MDA-MB-468, 6 d; S ± SD; cutoff ±1
# Protocol: as §1, §2, §3, §4, §5
# HCC-1954 cells [2] = assay: Cytotoxicity (cell viability, CellTiter-Glo, 6 d); assay type: cell-based; conditions: Homo sapiens, HCC1954, HCC-1954
# Protocol: as §1
# After 6 d of treatment, CellTiter-Glo luminescent assay was performed and the luminescence was read on Envision Reader. The results were analyzed using GeneData Screener as described before.
# MDA-MB-453 cells = assay: Dose-matrix combination assay (synergy score, Loewe model); assay type: cell-based
# Protocol: (§6) Dose-matrix combination assays were performed as described above, but performed in opague 384-well plates (2k viable cells/well). Compounds were added using Tecan D300e liquid. Protein solutions were supplemented with 0.3% Tween-20 (final) and diluted to 1 μM. All wells were normalized to the maximum amount of DMSO (maximum 0.4%) or Tween-20 added. Read out of luminescence was performed on Envision 2104 Multilabel Reader (Perkin Elmer) and data were evaluated using Genedata Screener® version 14.0.6-Standard (Genedata AG). Luminescence values were normalized to luminescence of non-treated cells and dose-response was fitted using Smart Fit. Synergy scores were calculated using LOEWE synergy model.
# as §2
# NCI-N87 cells = assay: as above; assay type: cell-based
# Protocol: as §6, §2
# HCC-1954 cells [3] = assay: MNED curve-shift assay; assay type: cell-based; conditions: for MNED (maximum non-efficacious dose): HCC-1954
# Description: Therefore a curve-shift assay system was established. In a first step, a dose-response curve (DRC) is obtained by treating a certain cell line with an inhibitor. The maximum non-efficacious dose (MNED) can be derived from this DRC. MNED is the highest dose, that can be added to a certain cell line without affecting the viability. The activity of the ADC is confirmed in a separate experiment. Finally, a combination experiment can be conducted. Therefore, the ADC and ADC plus inhibitor at MNED are added to the cells. The inhibitor is tested in parallel at MNED as a control. Due to the application of inhibitor at MNED, no reduction in cell viability caused by the inhibitor is expected. Three outcomes are possible: 1) The combination of ADC plus inhibitor is equipotent as the ADC only. […] Such a result would be interpreted as depotentiation. […] In this case, the potency of the ADC is potentiated.
# Potentiation effects are expressed as dose-reduction indices (DRI), which can be calculated by dividing the IC50-value of ADC by the IC50-value of ADC plus inhibitor according to eq. 1
# Curve-shift assays were conducted as follows: The cell number and viability was determined using ViCell™-XR (Beckman Coulter) and seeded in opague 96-well plate (10k viable cells/well). After seeding, the plate was incubated (37° C., 5% C02) in a humid chamber overnight. Compounds were diluted in the appropriate medium, added to the cells and the plate was incubated (37° C., 5% CO2, 6 d) in a humid chamber. After 30 min equilibration at room temperature, CellTiter-Glo reagent (Promega) was added. After the plate was shaken (3 min, 550 rpm, rt) it was incubated (10 min, rt) and luminescence was read on a synergy 4 plate reader (BioTek). Evaluation was performed using GraphPad Prism version 6.05. Therefor luminescence values were normalized to luminescence values of non-treated cells and dose-response was fitted with 4-point logistic fit.
# The determination of dose-reduction indices (DRI) in a maximum non-efficacious dose (MNED) curve-shift assay is a 3-step process as depicted exemplarily in FIG. 13. The cytotoxicity of the ADC is confirmed in a cell viability assay in an initial step. […] In the second step. the MNED of the ATRi was determined. […] In order to obtain a full […] for the combination, the starting concentration of the ADC was lowered compared to the experiment in step 1.
# [4] = Xenograft experiment, tolerability (body weight); design: species or system H2d Rag2 mice; conditions: mouse, in vivo
# Protocol: The tolerability of the anti-cancer treatment was assessed considering the overall condition of the animal as well as body-weight changes of the mice (FIG. 22).
# NCI-N87 xenografts = assay: Xenograft experiment, therapeutic efficacy; conditions: single agent: αHER2-6 1.0 mg/kg i.v. single dose; ATRi 50 mg/kg per oral once daily 14 d
# Protocol: Female H2d Rag2 mice, 6-8 weeks old, were obtained from Taconic Biosciences, LLC. A xenograft was established by harvesting NCI-N87 cells from cell culture, mixing the cells 1:1 with Matrigel and injecting 2.5×10^6 cells subcutaneously into the flank of the mice. The tumor volume was assessed twice weekly by length measurements in two dimensions using calipers. The volume was calculated following eq. 3 where the length L is the longest tumor length and W is the shortest tumor length.
# After an initial tumor growth phase, mice were randomized and assigned to treatment groups comprising 10 animals. The initial tumor volume amounted to approximately 100 mm^3 when treatment started. Vehicle treated mice obtained a solution of 0.5% Methocel, 0.25% Tween-20 in water. […] Mice were weighted twice weekly to assess the body-weight during the treatment period. The criteria to terminate the study for single animals were skin ulcerations, tumor length exceeding 15 mm or tumor exceeding 10% of the body weight. In addition, body weight loss was a criterium for termination if body weight loss exceeded 20% accompanied with a haggard appearance, body weight loss exceeded 20% on three successive days or if body weight loss exceeded 25% of the adjusted body weight.
# [5] = combination with AZD6738, HCC-1954, 6 d
# [6] = combination with ADC αHER2-2, HCC-1954
# [7] = combination with DUBA, HCC-1954, 6 d, S ± SD, cutoff ±1
# [8] = ATRi alone, mean ± SD, read-out: Cytotoxicity IC50
# [9] = combination with DUBA, cell line not given (screen on HCC-1954 or MDA-MB-468)
structure (smiles),measurement,setting,value
CC[C@H](C)[C@@H]([C@@H](CC(=O)N1CCC[C@H]1[C@H](OC)[C@@H](C)C(=O)N[C@H](C)[C@@H](O)c1ccccc1)OC)N(C)C(=O)[C@@H](NC(=O)[C@@H](NC)C(C)C)C(C)C [MMAE] (H-[NMeV]V[Dil][Dolaproine]-X1),Synergy score S,HCC-1954 cells [1]; [5],2.2+0.1
C[C@@H]1COCCN1c1cc(C2(S(C)(=O)=O)CC2)nc(-c2cccc3[nH]ccc23)n1 [AZ20],Synergy score S,HCC-1954 cells [1]; [6],5.8±0.4
same,Synergy score S,HCC-1954 cells [1]; [7],5.1±0.5
COCC(=O)NC/C=C/c1ccc2ncnc(Nc3ccc(Oc4ccc(C)nc4)c(C)c3)c2c1 [CP724714],Synergy score S,MDA-MB-468 cells,additive effects
same,Synergy score S,HCC-1954 cells [1]; [7],additive effects
COc1cc2cc(C(=O)N3C[C@@H](CCl)c4c3cc(O)c3ccccc43)[nH]c2c(OC)c1OC [compound 24],Synergy score S,HCC-1954 cells [1]; [5],6.1 ± 1.2
same,Synergy score S,"HCC-1954 cells [1]; combination with AZD6738, HCC-1954, 6 d, listed as CBI-TMI (24)",6.1±1.2
same,IC50,"HCC-1954 cells [2]; duocarmycin variant alone, mean ± SD or mean (individual values), read-out: IC50",24 ± 32 nM
O=c1cc(-c2cccc3c2Sc2ccccc2S3)oc(N2CCOCC2)c1 [KU-55933],Synergy score S,HCC-1954 cells [1]; [7],2.1±1.2
C=CCNC1=C2C[C@@H](C)C[C@H](OC)[C@H](O)[C@@H](C)/C=C(\C)[C@H](OC(N)=O)[C@@H](OC)/C=C\C=C(/C)C(=O)NC(=CC1=O)C2=O [Tanespimycin],Synergy score S,HCC-1954 cells [1],1.4±0.4
C[C@@H]1COCCN1c1cc(-c2ccnn2C)c2ccnc(-c3ccn[nH]3)c2n1 [ATRi 1],Synergy score S,MDA-MB-453 cells,13.3±0.3 and 11.4 ± 1.4
same,Synergy score S,NCI-N87 cells,7.1±0.8 and 6.1±0.4
same,MNED (maximum non-efficacious dose),HCC-1954 cells [3],40 nM
same,effect on cell viability at MNED,"HCC-1954 cells [3]; HCC-1954, at 40 nM, inhibitor alone (quality control)",did not reduce cell viability
same,tolerability (conclusion),[4],well tolerated
same,Synergy score S,HCC-1954 cells [1],12.5±1.7 and 12.0±0.6
same,tumor response (tumor volume),NCI-N87 xenografts,transient tumor stasis was induced until day 8
Cc1nc(S(C)(=O)=O)ccc1-c1cc(N2CCOC[C@H]2C)nc2c(-c3ccn[nH]3)nccc12 [BAY73],MNED (maximum non-efficacious dose),HCC-1954 cells [3],14 nM
same,Synergy score S,HCC-1954 cells [1]; [6],14.4±1.1
same,Synergy score S,HCC-1954 cells [1]; [7],12.4±0.8
same,IC50,HCC-1954 cells [2]; [8],120 ± 30 nM
N#C/C(C(=O)c1ccc(Cl)cc1Cl)=C1/NC(=O)c2ccc(Cl)cc2N1 [Ciliobrevin D],Synergy score S,MDA-MB-468 cells,0.2±0.5
same,Synergy score S,HCC-1954 cells [1]; [7],1.2+0.6
Nc1nc(OCc2cc(Br)cs2)c2[nH]cnc2n1 [Lomeguatrib],Synergy score S,MDA-MB-468 cells,2.8±2.3
same,Synergy score S,HCC-1954 cells [1]; [7],0.1±0.3
COc1cc2cc(c1Cl)N(C)C(=O)C[C@H](OC(=O)[C@H](C)N(C)C(=O)CCS)[C@]1(C)O[C@H]1[C@H](C)[C@@H]1C[C@@](O)(NC(=O)O1)[C@H](OC)/C=C/C=C(\C)C2 [DM1],Synergy score S,HCC-1954 cells [1],2.8 ± 0.5
C=CCn1c(=O)c2cnc(Nc3ccc(N4CCN(C)CC4)cc3)nc2n1-c1cccc(C(C)(C)O)n1 [AZD1775],Synergy score S,MDA-MB-468 cells,0.1±0.4
same,Synergy score S,HCC-1954 cells [1]; [7],0.8±0.1
C[C@@H]1COCCN1c1cc(C2(S(C)(=O)=O)CC2)c2ccnc(-c3ccn[nH]3)c2n1 [BAY286],Synergy score S,HCC-1954 cells [1]; [6],10.4±0.2
same,Synergy score S,HCC-1954 cells [1]; [7],9.5±0.8
same,IC50,HCC-1954 cells [2]; [8],80 ± 20 nM
Nc1nc(NC2CC2)cc(-c2cccc(Cl)c2Cl)n1 [TH588],Synergy score S,MDA-MB-468 cells,−0.4+0.3
same,Synergy score S,HCC-1954 cells [1]; [7],−0.2±0.3
S=C(NCc1ccc2c(c1)OCO2)N1CCN(c2ncnc3c2oc2ccccc23)CC1 [Amuvatinib],Synergy score S,HCC-1954 cells [1]; [9],did not yield a synergy score exceeding the cutoff
Cc1cnc(NC(=O)Nc2cc(Br)c(C)cc2OC[C@@H]2CNCCO2)cn1 [LY2603618],Synergy score S,MDA-MB-468 cells,4.4+1.7
same,Synergy score S,HCC-1954 cells [1]; [7],4.1+0.3
Cc1c(N)nc([C@H](CC(N)=O)NC[C@H](N)C(N)=O)nc1C(=O)N[C@H](C(=O)N[C@H](C)[C@@H](O)[C@H](C)C(=O)NC(C(=O)NCCc1nc(-c2nc(C(=O)NCCCNCCCCN)cs2)cs1)[C@@H](C)O)[C@@H](O[C@@H]1O[C@@H](CO)[C@@H](O)[C@H](O)[C@@H]1O[C@H]1O[C@H](CO)[C@@H](O)[C@H](OC(N)=O)[C@@H]1O)c1cnc[nH]1 (some centres unmarked) [Bleomycin A5],Synergy score S,MDA-MB-468 cells,0.4+1.0
same,Synergy score S,HCC-1954 cells [1]; [7],1.6±1.0
Nc1ccn([C@@H]2O[C@H](CO)[C@@H](O)C2(F)F)c(=O)n1 [Gemcitabine],Synergy score S,"MDA-MB-453 cells; combination with AZD6738, MDA-MB-453",1.6±1.2
same,Synergy score S,"NCI-N87 cells; combination with AZD6738, NCI-N87",1.1±0.5
same,Synergy score S,HCC-1954 cells [1]; [5],6.9±0.3
NC(=O)Nc1cc(-c2cccc(F)c2)sc1C(=O)N[C@H]1CCCNC1 [AZD7762],Synergy score S,MDA-MB-468 cells,2.6+0.2
same,Synergy score S,HCC-1954 cells [1]; [7],3.6±0.4
O=c1cc(N2CCOCC2)oc2c(-c3cccc4c3sc3ccccc34)cccc12 [NU7441],Synergy score S,HCC-1954 cells [1]; [9],did not yield a synergy score exceeding the cutoff
O=C(c1cc(Cc2n[nH]c(=O)c3ccccc23)ccc1F)N1CCN(C(=O)C2CC2)CC1 [Olaparib],Synergy score S,MDA-MB-468 cells,1.1+0.1
same,Synergy score S,HCC-1954 cells [1]; [7],0.6+0.4
CCN(CC)CCNc1ccc(CO)c2sc3ccccc3c(=O)c12 [Hycanthone],Synergy score S,HCC-1954 cells [1]; [9],0.1
